The source of these data is patent US20260166159A1, “KRAS G12D DEGRADATION AGENT, AND PREPARATION METHOD AND USE THEREFOR” (LEADINGTAC PHARMACEUTICAL (SHAOXING) CO., LTD., priority 2022, published 2026).

Holding throughout (type): cell-based
Test [1] relates to KRAS G12D mutant human lung cancer cell A427. Description: 3D cell proliferation inhibition assay, A427. The conditions noted are these: A-427, 168 h, A427, 7 days, CTG, class symbols. The essentials:
(§1)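 3D growth, low-adsorption plate; 5×10^2 cells/well; cpd 10000–0.026 nM final, 0.2% DMSO; 7 d, 37 °C/5% CO2. CTG luminescence, 60 min RT. % inhibition vs DMSO (cells) and medium blanks; IC50 by nonlinear fit.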

The subject of test [2] is KRAS G12D mutant human gastric cancer cell AGS. Description: 3D cell proliferation inhibition assay, AGS. The conditions noted are these: 168 h, 7 days, CTG, class symbols. In a few lines:
as §1

The next test deals with T1, KRAS-G12D (Homo sapiens, UniProt P01116, G12D).
T1 construct: endogenous in cells; host or cells: A-427 (ATCC), AGS, AsPc-1, Panc 04.03
T1 sequence (P01116 1-188 isoform P01116-2 G12D): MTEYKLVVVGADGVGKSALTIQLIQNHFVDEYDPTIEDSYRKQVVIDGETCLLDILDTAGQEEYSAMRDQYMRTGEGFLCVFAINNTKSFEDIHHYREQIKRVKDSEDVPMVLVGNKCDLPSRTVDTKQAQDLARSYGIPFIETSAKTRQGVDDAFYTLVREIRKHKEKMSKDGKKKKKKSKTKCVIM
Kind of test: KRAS-G12D degradation assay (Western Blot), A-427 cells. The conditions noted are these: A427 cells, 24 h, class symbols; for Dmax: A-427. The essentials:
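Western blotting of lysates (5 μg protein) quantified KRAS against a β-actin reference after 24 h exposure to compound at final 0.03–3000 nM in 0.25% DMSO. Cells were A-427, AGS, AsPc-1 or Panc 04.03, all KRAS G12D, at 5×10^5/well. Degradation versus control yielded DC50 and Dmax.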
Background: A western blot detects proteins with antibodies after separation by electrophoresis.

Consider `C#Cc1c(F)ccc2cc(O)cc(-c3ncc4c(N5CC6CCC(C5)N6)nc(OCC5(CN6CCN(CC7CCC8(CC7)CCN(C(=O)c7ccc(Cl)c(N9CCC(=O)N(C)C9=O)c7)CC8)CC6)CC5)nc4c3F)c12` [Example 17, 1-(5-(9-((4-((1-(((4-(3,8-diazabicyclo[3.2.1]octan-3-yl)-7-(8-ethynyl-7-fluoro-3-hydroxynaphthalen-1-yl)-8-fluoropyrido[4,3-d]pyrimidin-2-yl)oxy)methyl)cyclopropyl)methyl)piperazin-1-yl)methyl)-3-azaspiro[5.5]undecane-3-carbonyl)-2-chlorophenyl)-3-methyldihydropyrimidine-2,4(1H,3H)-dione], for which the concentration for half-maximal inhibition (IC50) in test [1] and in test [2] was 50 to 100 nM in each case. Further, the 50% degradation concentration (DC50) – broadly, the midpoint of the concentration-degradation curve – on KRAS-G12D fell in the range of 1000 to 10000 nM. In addition, at KRAS-G12D, the Dmax (usually the largest share of the target that was removed) is < 30%.
Take `C#Cc1c(F)ccc2cc(O)cc(-c3ncc4c(N5CC6CCC(C5)N6)nc(OCC5(CN6CCN(CCC7CCC8(CC7)CCN(C(=O)c7ccc(Cl)c(N9CCC(=O)NC9=O)c7)CC8)CC6)CC5)nc4c3F)c12` [Example 18, 1-(5-(9-(2-(4-((1-(((4-(3,8-diazabicyclo[3.2.1]octan-3-yl)-7-(8-ethynyl-7-fluoro-3-hydroxynaphthalen-1-yl)-8-fluoropyrido[4,3-d]pyrimidin-2-yl)oxy)methyl)cyclopropyl)methyl)piperazin-1-yl)ethyl)-3-azaspiro[5.5]undecane-3-carbonyl)-2-chlorophenyl)dihydropyrimidine-2,4(1H,3H)-dione]: in test [1], the IC50 (commonly the point on the concentration scale where inhibition reaches its midpoint) was ≤ 50 nM. The IC50 in test [2] is ≤ 50 nM. Besides, on KRAS-G12D, the DC50 was ≤ 50 nM and the greatest degradation seen (Dmax) was 80 to 100%.
In turn, `CCc1cccc2cc(O)cc(-c3ncc4c(N5CC6CCC(C5)N6)nc(OCC5(CN6CCN(CCCC7CCN(C(=O)c8ccc(Cl)c(N9CCC(=O)NC9=O)c8)CC7)CC6)CC5)nc4c3F)c12` [Example 19, 1-(5-(4-(3-(4-((1-(((4-(3,8-diazabicyclo[3.2.1]octan-3-yl)-7-(8-ethyl-3-hydroxynaphthalen-1-yl)-8-fluoropyrido[4,3-d]pyrimidin-2-yl)oxy)methyl)cyclopropyl)methyl)piperazin-1-yl)propyl)piperidine-1-carbonyl)-2-chlorophenyl)dihydropyrimidine-2,4(1H,3H)-dione] had an IC50 in test [1] of 100 to 500 nM. Moreover, the IC50 in test [2] was ≤ 50 nM. At KRAS-G12D, this compound displayed a 50% degradation concentration (DC50) of 50 to 100 nM and a Dmax of 80 to 100%.
The matching figures for `CCc1cccc2cc(O)cc(-c3ncc4c(N5CC6CCC(C5)N6)nc(OCC5(CN6CCN(CC7CCC8(CC7)CCN(C(=O)c7ccc(OC)c(N9CCC(=O)NC9=O)c7)CC8)CC6)CC5)nc4c3F)c12` [Example 20, 1-(5-(9-((4-((1-(((4-(3,8-diazabicyclo[3.2.1]octan-3-yl)-7-(8-ethyl-3-hydroxynaphthalen-1-yl)-8-fluoropyrido[4,3-d]pyrimidin-2-yl)oxy)methyl)cyclopropyl)methyl)piperazin-1-yl)methyl)-3-azaspiro[5.5]undecane-3-carbonyl)-2-methoxyphenyl)dihydropyrimidine-2,4(1H,3H)-dione]: ≤ 50 nM, ≤ 50 nM, ≤ 50 nM and 80 to 100%.
The matching figures for `C#Cc1c(F)ccc2cc(O)cc(-c3ncc4c(N5CC6CCC(C5)N6)nc(OCC5(CN6CCC(COCCC7CCN(C(=O)c8ccc(Cl)c(N9CCC(=O)NC9=O)c8)CC7)CC6)CC5)nc4c3F)c12` [Example 21, 1-(5-(4-(2-((1-((1-(((4-(3,8-diazabicyclo[3.2.1]octan-3-yl)-7-(8-ethynyl-7-fluoro-3-hydroxynaphthalen-1-yl)-8-fluoropyrido[4,3-d]pyrimidin-2-yl)oxy)methyl)cyclopropyl)methyl)piperidin-4-yl)methoxy)ethyl)piperidine-1-carbonyl)-2-chlorophenyl)dihydropyrimidine-2,4(1H,3H)-dione]: 100 to 500 nM, ≤ 50 nM, ≤ 50 nM and 80 to 100%.
With `CCc1c(F)ccc2cc(O)cc(-c3ncc4c(N5CC6CCC(C5)N6)nc(OCC5(CN6CCN(CCCC7CCN(C(=O)c8ccc(Cl)c(N9CCC(=O)NC9=O)c8)CC7)CC6)CC5)nc4c3F)c12` [Example 22, 1-(5-(4-(3-(4-((1-(((4-(3,8-diazabicyclo[3.2.1]octan-3-yl)-7-(8-ethyl-7-fluoro-3-hydroxynaphthalen-1-yl)-8-fluoropyrido[4,3-d]pyrimidin-2-yl)oxy)methyl)cyclopropyl)methyl)piperazin-1-yl)propyl)piperidine-1-carbonyl)-2-chlorophenyl)dihydropyrimidine-2,4(1H,3H)-dione], in test [1], the half-maximal inhibitory concentration (IC50) was 50 to 100 nM. Further, the half-inhibitory concentration (IC50) in test [2] was ≤ 50 nM. Besides, at KRAS-G12D, the 50% degradation concentration (DC50) is ≤ 50 nM and the Dmax lay within 50 to 80%.
With `C#Cc1c(F)ccc2cc(O)cc(-c3ncc4c(N5CC6CCC(C5)N6)nc(OCC(C)(C)CN5CCN(CCCC6CCN(C(=O)c7ccc(Cl)c(N8CCC(=O)NC8=O)c7)CC6)CC5)nc4c3F)c12` [Example 23, 1-(5-(4-(3-(4-(3-((4-(3,8-diazabicyclo[3.2.1]octan-3-yl)-7-(8-ethynyl-7-fluoro-3-hydroxynaphthalen-1-yl)-8-fluoropyrido[4,3-d]pyrimidin-2-yl)oxy)-2,2-dimethylpropyl)piperazin-1-yl)propyl)piperidine-1-carbonyl)-2-chlorophenyl)dihydropyrimidine-2,4(1H,3H)-dione], the IC50 in test [1] was 100 to 500 nM; in test [2], 50 to 100 nM. This compound also came in with a DC50 at KRAS-G12D of 1000 to 10000 nM. The compound also came in with a Dmax at KRAS-G12D of 30 to 50%.
`C#Cc1c(F)ccc2cc(O)cc(-c3ncc4c(N5CC6CCC(C5)N6)nc(OCC5(CN6CCN(CCCC7CCN(C(=O)c8ccc(Cl)c(N9CCC(=O)NC9=O)c8)CC7)CC6)CCC5)nc4c3F)c12` [Example 24, 1-(5-(4-(3-(4-((1-(((4-(3,8-diazabicyclo[3.2.1]octan-3-yl)-7-(8-ethynyl-7-fluoro-3-hydroxynaphthalen-1-yl)-8-fluoropyrido[4,3-d]pyrimidin-2-yl)oxy)methyl)cyclobutyl)methyl)piperazin-1-yl)propyl)piperidine-1-carbonyl)-2-chlorophenyl)dihydropyrimidine-2,4(1H,3H)-dione]: the IC50 lay in the range of 100 to 500 nM in test [1] and 50 to 100 nM in test [2]. Also, the half-maximal degradation concentration (DC50) at KRAS-G12D was ≤ 50 nM. This compound returned a maximal degradation (Dmax) at KRAS-G12D of 80 to 100%.
The matching figures for `C#Cc1c(F)ccc2cc(O)cc(-c3ncc4c(N5CC6CCC(C5)N6)nc(OCC(C)(C)CN5CCN(CC6CCC7(CC6)CCN(C(=O)c6ccc(OC)c(N8CCC(=O)NC8=O)c6)CC7)CC5)nc4c3F)c12` [Example 26, 1-(5-(9-((4-(3-((4-(3,8-diazabicyclo[3.2.1]octan-3-yl)-7-(8-ethynyl-7-fluoro-3-hydroxynaphthalen-1-yl)-8-fluoropyrido[4,3-d]pyrimidin-2-yl)oxy)-2,2-dimethylpropyl)piperazin-1-yl)methyl)-3-azaspiro[5.5]undecane-3-carbonyl)-2-methoxyphenyl)dihydropyrimidine-2,4(1H,3H)-dione]: 50 to 100 nM, 50 to 100 nM, 1000 to 10000 nM and 30 to 50%.
On to `C#Cc1c(F)ccc2cc(O)cc(-c3ncc4c(N5CC6CCC(C5)N6)nc(OCC5(CN6CCN(CC7CCC8(CC7)CCN(C(=O)c7ccc(Br)c(N9CCC(=O)NC9=O)c7)CC8)CC6)CC5)nc4c3F)c12` [Example 29, 1-(5-(9-((4-((1-(((4-(3,8-diazabicyclo[3.2.1]octan-3-yl)-7-(8-ethynyl-7-fluoro-3-hydroxynaphthalen-1-yl)-8-fluoropyrido[4,3-d]pyrimidin-2-yl)oxy)methyl)cyclopropyl)methyl)piperazin-1-yl)methyl)-3-azaspiro[5.5]undecane-3-carbonyl)-2-bromophenyl)dihydropyrimidine-2,4(1H,3H)-dione], for which the half-maximal inhibitory concentration (IC50) in test [1] and in test [2] was ≤ 50 nM in each case. Further, the 50% degradation concentration (DC50) on KRAS-G12D was ≤ 50 nM. Besides, the Dmax on KRAS-G12D lay in the range of 80 to 100%.
With `CCc1c(F)ccc2cc(O)cc(-c3ncc4c(N5CC6CCC(C5)N6)nc(OCC5(CN6CCN(CC7CCC8(CC7)CCN(C(=O)c7ccc(Cl)c(N9CCC(=O)NC9=O)c7)CC8)CC6)CC5)nc4c3F)c12` [Example 30, 1-(5-(9-((4-((1-(((4-(3,8-diazabicyclo[3.2.1]octan-3-yl)-7-(8-ethyl-7-fluoro-3-hydroxynaphthalen-1-yl)-8-fluoropyrido[4,3-d]pyrimidin-2-yl)oxy)methyl)cyclopropyl)methyl)piperazin-1-yl)methyl)-3-azaspiro[5.5]undecane-3-carbonyl)-2-chlorophenyl)dihydropyrimidine-2,4(1H,3H)-dione], the 50% inhibitory concentration (IC50) in test [1] was ≤ 50 nM. The 50% inhibitory concentration (IC50) in test [2] is ≤ 50 nM. For the same compound, on KRAS-G12D, the DC50 is ≤ 50 nM and the maximal degradation (Dmax) lay in the range of 50 to 80%.
In the case of `C#Cc1c(F)ccc2cc(O)cc(-c3ncc4c(N5CC6CCC(C5)N6)nc(OCC5(CN6CCN(CCCCC7CCC8(CC7)CCN(C(=O)c7ccc(Cl)c(N9CCC(=O)NC9=O)c7)CC8)CC6)CC5)nc4c3F)c12` [Example 31, 1-(5-(9-(4-(4-((1-(((4-(3,8-diazabicyclo[3.2.1]octan-3-yl)-7-(8-ethynyl-7-fluoro-3-hydroxynaphthalen-1-yl)-8-fluoropyrido[4,3-d]pyrimidin-2-yl)oxy)methyl)cyclopropyl)methyl)piperazin-1-yl)butyl)-3-azaspiro[5.5]undecane-3-carbonyl)-2-chlorophenyl)dihydropyrimidine-2,4(1H,3H)-dione], in test [1], the IC50 was ≤ 50 nM. For the same compound, the IC50 in test [2] is ≤ 50 nM. On KRAS-G12D, the half-maximal degradation concentration (DC50) was ≤ 50 nM and the maximal degradation (Dmax) was in the range of 80 to 100%.
